# Experimental data reported in paper PMC9506485, “Synthesis and Structure–Activity Relationships for the Anti-Mycobacterial Activity of 3-Phenyl-N-(Pyridin-2-ylmethyl)Pyrazolo[1,5-a]Pyrimidin-7-Amines” (Pharmaceuticals, 2022).
# Columns and labels:
# [1] = tested on: Mycobacterium tuberculosis (strain H37Rv); test: LORA minimum inhibitory concentration assay (low-oxygen/non-replicating); conditions: M.tb H37Rv, 90% inhibition of growth
# [2] = tested on: VERO green monkey kidney cells; test: VERO mammalian cell toxicity assay; format: cell-based; conditions: inhibition of growth of VERO green monkey kidney epithelial cells; for IC50: Chlorocebus sabaeus
# [3] = tested on: Mycobacterium tuberculosis (strain H37Rv); test: MABA minimum inhibitory concentration assay (aerobic/replicating); format: cell-based; conditions: M.tb H37Rv, aerobic/replicating, 90% inhibition of growth; for MIC90: Mycobacterium tuberculosis
# [4] = Microsomal stability, mouse liver microsomes; format: in vitro ADME; conditions: for CLint scaled at 1 μM / half-life at 1 μM: CD-1, mouse, microsomes, pH 7.4; for microsomal CLint at 1 μM: CD-1, pH 7.4, mouse liver microsomes, read-out: MLM Clint(mic)
# Description: (§1) Assays were performed by WuXi AppTec (Shanghai) Co., Ltd. The test compounds (Table 4) (at 1 μM) were incubated at 37 °C with liver microsomes from human or CD-1 mice in the presence of a NADPH regenerating system and phosphate buffer (100 mM, pH 7.4) at 0.5 mg/mL microsomal protein (the positive controls were testosterone, propafenone, and diclofenac). Samples were removed at time intervals of 0, 5, 10, 20, 30, and 60 min and immediately mixed with cold CH3CN (containing 0.1 μg/mL of tolbutamide as an internal standard) and then centrifuged prior to analysis by LCMS/MS.
# [5] = Microsomal stability, human liver microsomes; format: in vitro ADME; conditions: pH 7.4; for microsomal CLint at 1 μM: human liver microsomes, read-out: HLM Clint(mic)
# Description: as §1
# [6] = human/mouse liver microsomes not distinguished, read-out: T½ values (microsomal stability)
Molecule,MIC90 LORA [1],IC50 [2],MIC90 [3],also measured
"3-(4-Fluorophenyl)-N-((6-(4-methylpiperidin-1-yl)pyridin-2-yl)methyl)-5-phenylpyrazolo[1,5-a]pyrimidin-7-amine [Compound 51]",0.85 µg/mL,,,IC50 VERO [2]: 11.8 µg/mL; MIC90 MABA [3]: 0.94 µg/mL
"Fc1ccccc1-c1cnn2c(NCc3ccccn3)cc(-c3ccccc3)nc12 [Compound 11, 3-(2-Fluorophenyl)-5-phenyl-N-(pyridin-2-ylmethyl)pyrazolo[1,5-a]pyrimidin-7-amine]",>32 µg/mL,> 32 µg/mL,> 32 µg/mL,melting point: 176 to 178 °C
"COc1ccccc1-c1cnn2c(NCc3ccccn3)cc(-c3ccccc3)nc12 [Compound 12, 3-(2-Methoxyphenyl)-5-phenyl-N-(pyridin-2-ylmethyl)pyrazolo[1,5-a]pyrimidin-7-amine]",>32 µg/mL,> 32 µg/mL,> 32 µg/mL,melting point: 169 to 171 °C
"FC(F)(F)c1ccccc1-c1cnn2c(NCc3ccccn3)cc(-c3ccccc3)nc12 [Compound 13, 5-Phenyl-N-(pyridin-2-ylmethyl)-3-(2-(trifluoromethyl)phenyl)pyrazolo[1,5-a]pyrimidin-7-amine]",>32 µg/mL,> 32 µg/mL,> 32 µg/mL,melting point: 166 to 168 °C
"Fc1cccc(-c2cnn3c(NCc4ccccn4)cc(-c4ccccc4)nc23)c1 [Compound 14, 3-(3-Fluorophenyl)-5-phenyl-N-(pyridin-2-ylmethyl)pyrazolo[1,5-a]pyrimidin-7-amine]",>32 µg/mL,> 32 µg/mL,> 32 µg/mL,melting point: 170 to 172 °C
"Fc1ccc(-c2cnn3c(NCc4ccccn4)ccnc23)cc1 [Compound 22, 3-(4-Fluorophenyl)-N-(pyridin-2-ylmethyl)pyrazolo[1,5-a]pyrimidin-7-amine]",0.39 µg/mL,> 32 µg/mL,0.89 µg/mL,
"C=Cc1cc(NCc2ccccn2)n2ncc(-c3ccc(F)cc3)c2n1 [Compound 24, 3-(4-Fluorophenyl)-N-(pyridin-2-ylmethyl)-5-vinylpyrazolo[1,5-a]pyrimidin-7-amine]",0.47 µg/mL,17.2 µg/mL,1.48 µg/mL,
"Fc1ccc(-c2cnn3c(NCc4ccccn4)cc(C4=CCCC4)nc23)cc1 [Compound 26, 5-(Cyclopent-1-en-1-yl)-3-(4-fluorophenyl)-N-(pyridin-2-ylmethyl)pyrazolo[1,5-a]pyrimidin-7-amine]",0.23 µg/mL,> 32 µg/mL,0.89 µg/mL,"CLint scaled at 1 μM [4]: 140 mL/min/kg; half-life at 1 μM [4]: 39 min; microsomal CLint at 1 μM [4]: 35 µL/min/mg; CLint scaled at 1 μM ([5]; human, microsomes): 32 mL/min/kg; half-life at 1 μM ([5]; human, microsomes): 39 min; microsomal CLint at 1 μM [5]: 35 µL/min/mg; half-life at 1 μM [5, 6]: < 85 min"
"Fc1ccc(-c2cnn3c(NCc4ccccn4)cc(C4=CCCCC4)nc23)cc1 [Compound 27, 5-(Cyclohex-1-en-1-yl)-3-(4-fluorophenyl)-N-(pyridin-2-ylmethyl)pyrazolo[1,5-a]pyrimidin-7-amine]",0.44 µg/mL,> 32 µg/mL,0.62 µg/mL,"CLint scaled at 1 μM [4]: 120 mL/min/kg; half-life at 1 μM [4]: 49 min; microsomal CLint at 1 μM [4]: 30 µL/min/mg; CLint scaled at 1 μM ([5]; human, microsomes): 17 mL/min/kg; half-life at 1 μM ([5]; human, microsomes): 75 min; microsomal CLint at 1 μM [5]: 19 µL/min/mg; half-life at 1 μM [5, 6]: < 85 min"
"COc1ccccc1-c1cc(NCc2ccccn2)n2ncc(-c3ccc(F)cc3)c2n1 [Compound 29, 3-(4-Fluorophenyl)-5-(2-methoxyphenyl)-N-(pyridin-2-ylmethyl)pyrazolo[1,5-a]pyrimidin-7-amine]",9.0 µg/mL,> 32 µg/mL,13.3 µg/mL,
"COc1cccc(-c2cc(NCc3ccccn3)n3ncc(-c4ccc(F)cc4)c3n2)c1 [Compound 31, 3-(4-Fluorophenyl)-5-(3-methoxyphenyl)-N-(pyridin-2-ylmethyl)pyrazolo[1,5-a]pyrimidin-7-amine]",1.7 µg/mL,> 32 µg/mL,3.9 µg/mL,
"Fc1ccc(-c2cc(NCc3ccccn3)n3ncc(-c4ccc(F)cc4)c3n2)cc1 [Compound 32, 3,5-Bis(4-fluorophenyl)-N-(pyridin-2-ylmethyl)pyrazolo[1,5-a]pyrimidin-7-amine]",0.22 µg/mL,> 32 µg/mL,3 µg/mL,
"Cc1ccc(-c2cc(NCc3ccccn3)n3ncc(-c4ccc(F)cc4)c3n2)cc1 [Compound 33, 3-(4-Fluorophenyl)-N-(pyridin-2-ylmethyl)-5-(p-tolyl)pyrazolo[1,5-a]pyrimidin-7-amine]",5.0 µg/mL,> 32 µg/mL,3.7 µg/mL,
"Fc1ccc(-c2cnn3c(NCc4ccccn4)cc(-c4ccc(C(F)(F)F)cc4)nc23)cc1 [Compound 37, 3-(4-Fluorophenyl)-N-(pyridin-2-ylmethyl)-5-(4-(trifluoromethyl)phenyl)pyrazolo[1,5-a]pyrimidin-7-amine]",3.6 µg/mL,> 32 µg/mL,3.8 µg/mL,
"Fc1ccc(-c2cnn3c(NCc4ccccn4)cc(-c4ccncc4)nc23)cc1 [Compound 40, 3-(4-Fluorophenyl)-N-(pyridin-2-ylmethyl)-5-(pyridin-4-yl)pyrazolo[1,5-a]pyrimidin-7-amine]",28 µg/mL,> 32 µg/mL,> 32 µg/mL,
"Fc1ccc(-c2cnn3c(NCc4ccccn4)cc(-c4ccco4)nc23)cc1 [Compound 43, 3-(4-Fluorophenyl)-5-(furan-2-yl)-N-(pyridin-2-ylmethyl)pyrazolo[1,5-a]pyrimidin-7-amine]",<0.13 µg/mL,> 32 µg/mL,0.96 µg/mL,
"CN(C)CC#Cc1ccc(CNc2cc(-c3ccccc3)nc3c(-c4ccc(F)cc4)cnn23)nc1 [Compound 55, N-((5-(3-(Dimethylamino)prop-1-yn-1-yl)pyridin-2-yl)methyl)-3-(4-fluorophenyl)-5-phenylpyrazolo[1,5-a]pyrimidin-7-amine]",5.5 µg/mL,> 32 µg/mL,1.9 µg/mL,"CLint scaled at 1 μM [4]: 121 mL/min/kg; half-life at 1 μM [4]: 45.4 min; microsomal CLint at 1 μM [4]: 31 µL/min/mg; CLint scaled at 1 μM ([5]; human, microsomes): < 8.6 mL/min/kg; half-life at 1 μM ([5]; human, microsomes): > 145 min; microsomal CLint at 1 μM [5]: < 9.6 µL/min/mg"
"CN(C)CCCc1ccc(CNc2cc(-c3ccccc3)nc3c(-c4ccc(F)cc4)cnn23)nc1 [Compound 56, N-((5-(3-(dimethylamino)propyl)pyridin-2-yl)methyl)-3-(4-fluorophenyl)-5-phenylpyrazolo[1,5-a]pyrimidin-7-amine]",6.1 µg/mL,20.3 µg/mL,5.8 µg/mL,
"CN(C)CCOc1ccc(CNc2cc(-c3ccccc3)nc3c(-c4ccc(F)cc4)cnn23)nc1 [Compound 57, N-((5-(2-(Dimethylamino)ethoxy)pyridin-2-yl)methyl)-3-(4-fluorophenyl)-5-phenylpyrazolo[1,5-a]pyrimidin-7-amine]",1.9 µg/mL,24 µg/mL,3.6 µg/mL,
"N-((4-(2-(Dimethylamino)ethoxy)pyridin-2-yl)methyl)-3-(4-fluorophenyl)-5-phenylpyrazolo[1,5-a]pyrimidin-7-amine [Compound 58]",4.1 µg/mL,,,IC50 VERO [2]: >32 µg/mL; MIC90 MABA [3]: 4.7 µg/mL
